Where a name gives a salt, the structure may show the parent alone.
Tests used:
[1] = target: BCRP (Homo sapiens (Human), UniProt Q9UNQ0); test: BCRP MDCKII permeability assay: efflux ratio; assay type: in vitro ADME; settings: dog
[2] = target: P-gp (MDR1) (Homo sapiens (Human), UniProt P08183); test: MDR1 LLC-PK1 permeability assay: efflux ratio; assay type: in vitro ADME; settings: pig
From the text: (§1) Final organic concentration in the assay was 1%.

[3] = MDR1 LLC-PK1 and BCRP MDCKII permeability assay: permeability coefficient (Papp); assay type: in vitro ADME
From the text: as §1

[4] = target: full-length FLAG-tagged B-Raf(V600E) (Homo sapiens (Human), UniProt P15056, V600E); test: BRAF V600E enzyme assay (TR-FRET competitive displacement); assay type: binding; settings: averaged IC50; TR-FRET tracer displacement, 60 min
In short: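 TR-FRET tracer competition: compound (top dose 10 μM, 3-fold, 11 points) incubated 60 min at ambient temperature with FLAG-tagged full-length B-Raf(V600E) (5 nM), Eu anti-FLAG cryptate (0.5 nM) and tracer (50 nM), pH 7.4 HEPES/MgCl2 buffer. 665/615 ratio converted to percent of control; IC50 where fitted curve crosses 50 POC.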

[5] = test system: A375 cells; test: Cellular phospho-ERK inhibition assay in A375 cells; assay type: cell-based; settings: Homo sapiens, A-375, A375 cells (head prints A357), 2 hours treatment, read-out: A357 cell IC50
In short: (§2)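 In Cell Western detection of phospho-ERK1/2 (Thr202/Tyr204) over GAPDH after 2 h compound exposure (66 pM to 10 μM, 9 points, 0.25% DMSO) of A375 cells in DMEM or H1755 cells in RPMI, both with 10% FBS. Percent of control set by DMSO and 10 μM binimetinib; 4-parameter IC50.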

[6] = test system: H1755 cells; test: Cellular phospho-ERK inhibition assay in H1755 cells; assay type: cell-based; settings: Homo sapiens, NCI-H1755, 2 hours treatment, read-out: H1755 Cell IC50
In short: as §2

Sequence of full-length FLAG-tagged B-Raf(V600E) (P15056 whole entry V600E): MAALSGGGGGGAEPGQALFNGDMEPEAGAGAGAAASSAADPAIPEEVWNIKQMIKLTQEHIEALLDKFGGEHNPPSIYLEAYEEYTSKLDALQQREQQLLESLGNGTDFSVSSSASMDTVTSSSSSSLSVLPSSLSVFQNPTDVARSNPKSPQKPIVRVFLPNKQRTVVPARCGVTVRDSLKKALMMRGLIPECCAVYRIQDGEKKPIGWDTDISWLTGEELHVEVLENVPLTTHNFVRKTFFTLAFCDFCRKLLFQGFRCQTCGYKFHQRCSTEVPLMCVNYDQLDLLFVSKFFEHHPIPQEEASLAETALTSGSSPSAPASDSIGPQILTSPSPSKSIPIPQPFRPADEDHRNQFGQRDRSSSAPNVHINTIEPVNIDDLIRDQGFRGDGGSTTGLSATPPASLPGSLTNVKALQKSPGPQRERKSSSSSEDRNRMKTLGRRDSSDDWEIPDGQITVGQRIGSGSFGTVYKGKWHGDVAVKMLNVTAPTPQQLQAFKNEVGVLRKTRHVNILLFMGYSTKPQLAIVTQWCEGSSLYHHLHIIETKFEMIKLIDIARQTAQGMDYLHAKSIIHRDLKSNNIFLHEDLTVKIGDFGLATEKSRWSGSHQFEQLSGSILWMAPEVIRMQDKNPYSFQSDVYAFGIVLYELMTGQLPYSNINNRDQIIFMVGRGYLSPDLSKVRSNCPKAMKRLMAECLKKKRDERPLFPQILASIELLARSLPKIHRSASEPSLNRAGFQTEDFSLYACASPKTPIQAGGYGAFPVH
Sequence of BCRP (Q9UNQ0 whole entry): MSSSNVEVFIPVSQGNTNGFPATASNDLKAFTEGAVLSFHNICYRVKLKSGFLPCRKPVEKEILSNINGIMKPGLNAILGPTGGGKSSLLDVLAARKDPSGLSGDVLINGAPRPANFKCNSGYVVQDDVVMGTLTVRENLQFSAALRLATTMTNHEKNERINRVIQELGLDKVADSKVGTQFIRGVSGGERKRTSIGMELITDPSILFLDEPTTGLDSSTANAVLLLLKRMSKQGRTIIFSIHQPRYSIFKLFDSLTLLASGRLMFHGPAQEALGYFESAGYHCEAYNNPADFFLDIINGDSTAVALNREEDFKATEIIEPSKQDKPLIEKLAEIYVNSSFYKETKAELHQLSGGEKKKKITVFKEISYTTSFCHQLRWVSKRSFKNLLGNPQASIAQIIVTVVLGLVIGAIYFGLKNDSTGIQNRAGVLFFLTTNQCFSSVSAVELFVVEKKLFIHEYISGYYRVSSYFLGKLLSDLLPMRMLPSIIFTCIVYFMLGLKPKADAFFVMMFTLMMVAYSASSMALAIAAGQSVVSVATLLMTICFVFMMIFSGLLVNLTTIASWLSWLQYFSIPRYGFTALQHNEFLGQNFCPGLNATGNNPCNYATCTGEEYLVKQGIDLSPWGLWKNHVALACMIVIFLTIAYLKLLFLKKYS
Sequence of P-gp (MDR1) (P08183 whole entry, species assumed): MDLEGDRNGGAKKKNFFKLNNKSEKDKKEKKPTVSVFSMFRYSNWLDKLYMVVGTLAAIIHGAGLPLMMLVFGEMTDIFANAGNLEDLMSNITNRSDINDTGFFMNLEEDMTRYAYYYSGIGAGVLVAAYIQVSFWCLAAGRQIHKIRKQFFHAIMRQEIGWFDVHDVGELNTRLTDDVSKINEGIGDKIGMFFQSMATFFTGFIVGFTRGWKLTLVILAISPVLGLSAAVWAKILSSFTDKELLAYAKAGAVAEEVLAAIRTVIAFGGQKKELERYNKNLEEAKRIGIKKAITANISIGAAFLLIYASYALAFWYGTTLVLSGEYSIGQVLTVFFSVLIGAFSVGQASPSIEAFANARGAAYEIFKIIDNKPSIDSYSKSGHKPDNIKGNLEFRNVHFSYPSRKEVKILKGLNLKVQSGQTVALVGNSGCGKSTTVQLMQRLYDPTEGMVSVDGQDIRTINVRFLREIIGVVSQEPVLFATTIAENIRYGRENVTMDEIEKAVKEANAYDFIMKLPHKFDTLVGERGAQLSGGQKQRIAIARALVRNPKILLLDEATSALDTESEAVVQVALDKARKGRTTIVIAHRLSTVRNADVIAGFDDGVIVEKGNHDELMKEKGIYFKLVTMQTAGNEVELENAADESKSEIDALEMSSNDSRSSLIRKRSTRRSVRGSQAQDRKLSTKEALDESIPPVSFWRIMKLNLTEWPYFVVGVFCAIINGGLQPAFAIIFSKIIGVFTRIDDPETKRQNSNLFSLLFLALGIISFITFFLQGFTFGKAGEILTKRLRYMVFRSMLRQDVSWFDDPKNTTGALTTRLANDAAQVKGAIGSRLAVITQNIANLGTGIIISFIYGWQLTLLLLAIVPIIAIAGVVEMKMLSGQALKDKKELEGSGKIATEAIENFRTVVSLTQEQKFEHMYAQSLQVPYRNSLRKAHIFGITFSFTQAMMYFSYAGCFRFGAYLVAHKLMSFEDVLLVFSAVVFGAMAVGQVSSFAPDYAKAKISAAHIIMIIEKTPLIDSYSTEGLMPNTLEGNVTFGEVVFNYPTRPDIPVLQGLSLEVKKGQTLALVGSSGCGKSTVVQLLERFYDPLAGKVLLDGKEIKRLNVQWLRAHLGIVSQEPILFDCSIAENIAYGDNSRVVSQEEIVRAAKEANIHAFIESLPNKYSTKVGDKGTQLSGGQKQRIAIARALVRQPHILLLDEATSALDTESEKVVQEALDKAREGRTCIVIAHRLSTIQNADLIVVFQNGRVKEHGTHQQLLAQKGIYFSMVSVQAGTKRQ

SMILES | efflux ratio at 2 h, 1 µM [1] | efflux ratio at 2 h, 1 µM [2] | Papp at 2 h, 1 µM [3] [×10⁻⁶ cm/s] | IC50 [4] [nM] | IC50 [5] [nM] | IC50 [6] [nM]
Cc1c(Nc2c(F)ccc(NS(=O)(=O)N3CCC3)c2Cl)ccc2ncn(C)c(=O)c12 [Example 124, N-(2-chloro-3-((3,5-dimethyl-4-oxo-3,4-dihydroquinazolin-6-yl)amino)-4-fluorophenyl)azetidine-1-sulfonamide trifluoroacetate] | 1.3 | 1.1 | 43 | 17 | 21 | 10000
Cc1c(Nc2c(F)ccc(NS(=O)(=O)N3CC(F)C3)c2Cl)ccc2ncn(C)c(=O)c12 [Example 125, N-(2-chloro-3-((3,5-dimethyl-4-oxo-3,4-dihydroquinazolin-6-yl)amino)-4-fluorophenyl)-3-fluoroazetidine-1-sulfonamide] | 1.6 | 1.2 | 37 | 5 | 18 | 1010
COC1CN(S(=O)(=O)Nc2ccc(F)c(Nc3ccc4ncn(C)c(=O)c4c3C)c2Cl)C1 [Example 128, N-(2-chloro-3-((3,5-dimethyl-4-oxo-3,4-dihydroquinazolin-6-yl)amino)-4-fluorophenyl)-3-methoxyazetidine-1-sulfonamide trifluoroacetate] | 1.3 | 1.5 | 49 | 16 | 25 | 128
Cn1cnc2ccc(Nc3c(F)ccc(NS(=O)(=O)N4CC(F)(F)C4)c3Cl)c(Cl)c2c1=O [Example 135, N-(2-chloro-3-((5-chloro-3-methyl-4-oxo-3,4-dihydroquinazolin-6-yl)amino)-4-fluorophenyl)-3,3-difluoroazetidine-1-sulfonamide] | 5.1 | 1.9 | 29 | 3 | 22 | 189
Cn1cnc2ccc(Nc3c(F)ccc(NS(=O)(=O)N4CC(COC(F)F)C4)c3Cl)c(Cl)c2c1=O [Example 138, N-(2-chloro-3-((5-chloro-3-methyl-4-oxo-3,4-dihydroquinazolin-6-yl)amino)-4-fluorophenyl)-3-((difluoromethoxy)methyl)azetidine-1-sulfonamide trifluoroacetate] | 3.1 | 3.1 | 33 | 3 | 6 | 26
Cc1c(Nc2c(F)ccc(NS(=O)(=O)N3CC4CC4(F)C3)c2Cl)ccc2ncn(C)c(=O)c12 (stereo not drawn) [Example 149, N-(2-chloro-3-((3,5-dimethyl-4-oxo-3,4-dihydroquinazolin-6-yl)amino)-4-fluorophenyl)-1-fluoro-3-azabicyclo[3.1.0]hexane-3-sulfonamide] | 3.2 | 1.2 | 25 | 8 | 108 | 337
Cc1c(Nc2cc(F)cc(NS(=O)(=O)N3CCCC3)c2Cl)ccc2ncn(C)c(=O)c12 [Example 150, N-(2-chloro-3-((3,5-dimethyl-4-oxo-3,4-dihydroquinazolin-6-yl)amino)-5-fluorophenyl)pyrrolidine-1-sulfonamide] | 1.4 | 1.3 | 27 | 18 | 342 | 548

More lines, in order of falling IC50 [4], values ahead:

efflux ratio at 2 h, 1 µM [1] | efflux ratio at 2 h, 1 µM [2] | Papp at 2 h, 1 µM [3] [×10⁻⁶ cm/s] | IC50 [4] [nM] | IC50 [5] [nM] | IC50 [6] [nM] | SMILES
1.9 | 1.3 | 18 | 38 | 40 | 358 | Cc1c(Nc2c(F)ccc(NS(=O)(=O)N3CCCC3)c2F)ccc2ncn(C)c(=O)c12 [Example 113, N-(3-((3,5-dimethyl-4-oxo-3,4-dihydroquinazolin-6-yl)amino)-2,4-difluorophenyl)pyrrolidine-1-sulfonamide trifluoroacetate]
1.4 | 1.3 | 37 | 29 | 305 | 329 | CO[C@@H]1CCN(S(=O)(=O)Nc2cc(F)cc(Nc3ccc4ncn(C)c(=O)c4c3C)c2Cl)C1 [Example 152, (R)-N-(2-chloro-3-((3,5-dimethyl-4-oxo-3,4-dihydroquinazolin-6-yl)amino)-5-fluorophenyl)-3-methoxypyrrolidine-1-sulfonamide]
1.3 | 1.4 | 26 | 28 | 404 | 879 | Cc1c(Nc2cc(F)cc(NS(=O)(=O)N3CCCC3)c2F)ccc2ncn(C)c(=O)c12 [Example 154, N-(3-((3,5-dimethyl-4-oxo-3,4-dihydroquinazolin-6-yl)amino)-2,5-difluorophenyl)pyrrolidine-1-sulfonamide]
1.8 | 2.4 | 22 | 27 | 426 | 854 | Cc1c(Nc2c(F)ccc(NS(=O)(=O)N3CC4C(F)C4C3)c2Cl)ccc2ncn(C)c(=O)c12 (stereo not drawn) [Example 148, N-(2-chloro-3-((3,5-dimethyl-4-oxo-3,4-dihydroquinazolin-6-yl)amino)-4-fluorophenyl)-6-fluoro-3-azabicyclo[3.1.0]hexane-3-sulfonamide]
5.2 | 2.2 | 31 | 16 | 36 | 174 | Cc1c(Nc2c(F)ccc(NS(=O)(=O)N3CC[C@@H](F)C3)c2F)ccc2ncn(C)c(=O)c12 [Example 114, (R)-N-(3-((3,5-dimethyl-4-oxo-3,4-dihydroquinazolin-6-yl)amino)-2,4-difluorophenyl)-3-fluoropyrrolidine-1-sulfonamide trifluoroacetate]
1.8 | 1.5 | 28 | 14 | 283 | 538 | Cc1c(Nc2cc(F)cc(NS(=O)(=O)N3CC[C@@H](F)C3)c2Cl)ccc2ncn(C)c(=O)c12 [Example 151, (R)-N-(2-chloro-3-((3,5-dimethyl-4-oxo-3,4-dihydroquinazolin-6-yl)amino)-5-fluorophenyl)-3-fluoropyrrolidine-1-sulfonamide]
6 | 1.9 | 35 | 9 | 7 | 18 | COCC1CN(S(=O)(=O)Nc2ccc(F)c(Oc3ccc4ncn(C)c(=O)c4c3F)c2Cl)C1 [Example 121, N-(2-chloro-4-fluoro-3-((5-fluoro-3-methyl-4-oxo-3,4-dihydroquinazolin-6-yl)oxy)phenyl)-3-(methoxymethyl)azetidine-1-sulfonamide]
6.4 | 1.4 | 33 | 7 | 68 | 327 | Cc1c(Nc2c(F)ccc(NS(=O)(=O)N3CC(F)(F)C3)c2Cl)ccc2ncn(C)c(=O)c12 [Example 134, N-(2-chloro-3-((3,5-dimethyl-4-oxo-3,4-dihydroquinazolin-6-yl)amino)-4-fluorophenyl)-3,3-difluoroazetidine-1-sulfonamide]
18.3 | 3 | 24 | 6 | 7 | 89 | Cn1cnc2ccc(Nc3c(F)ccc(NS(=O)(=O)N4CC(F)(F)C4)c3Cl)c(F)c2c1=O [Example 136, N-(2-chloro-4-fluoro-3-((5-fluoro-3-methyl-4-oxo-3,4-dihydroquinazolin-6-yl)amino)phenyl)-3,3-difluoroazetidine-1-sulfonamide]

Source: patent publication US12303509B2, “Compounds for the treatment of BRAF-associated diseases and disorders” (Pfizer Inc., priority 2020, dated 2025)
